# Test results taken from patent publication US20220396604A1, “COMPOSITIONS COMPRISING MODIFIED SMARCB1 AND USES THEREOF” (Dana-Farber Cancer Institute, Inc., priority 2019, published 2022).
# System: mononucleosomes
# Assay: LANA peptide competition
# Assay type: binding
# Method: The LANA peptide competition was set up in a similar manner as the peptide pull-down experiments with the following exceptions: SMARCB1-CC (aa 351-385) biotin-labeled peptides at 10 μM in EB150 were bound to Streptavidin Dynabeads® (Pierce™ Streptavidin Magnetic Beads, Thermo Scientific) in parallel to […] of mononucleosomes incubated with LANA peptide (KE Biochem) at varying concentrations ranging from 0-30 μM overnight at 4° C. Beads were washed 3 times in EB150, and resuspended with the mononucleosome/LANA peptide solutions. The suspension was rotated for 3-5 hours at 4° C. The beads were washed 3-5 times in EB150, and eluted in Sample Buffer (2×LDS with 200 mM DTT) to load onto […] Tricine gels.
sequence,measurement,setting,value
MAPPGMRLRSGRSTGAPLTRGSC [LANA Peptide],antagonism of SMARCB1 CC domain-nucleosome interaction in competition experiments,,only partially antagonized
same,changes in SMARCB1 C-terminal domain peptide-nucleosome binding in LANA peptide competition,"1-20 uM concentration gradient, visualization of H3",minimal changes
